Source: publication PMC4229098, “Alzheimer's Therapeutics Targeting Amyloid Beta 1–42 Oligomers I: Abeta 42 Oligomer Binding to Specific Neuronal Receptors Is Displaced by Drug Candidates That Improve Cognitive Deficits” (PLoS ONE, 2014)
“Also recorded” adds a separate entry of the source. Like-named read-outs stand apart in the source and are kept apart here.

Key:
[1] = test system: neuronal synaptic puncta in hippocampal/cortical cultures; experiment: Abeta binding assay, neurons (immunofluorescence of neurite puncta); parameters: species or system rat; conditions: for displacement of Abeta oligomers: 15 µM compound added 1 hour after oligomers 0.5 µM, within 1 hour; for prevention of binding of Abeta oligomers to neuronal cultures: 15 µM compound one hour prior to synthetic Abeta oligomers 0.5 µM; for EC50: single site model
[2] = test system: mature primary hippocampal and cortical cultures; experiment: Membrane trafficking assay (MTT formazan exocytosis); format: cell-based, rat; conditions: for Schild slope: against synthetic oligomers; for reversal of trafficking deficit caused by human patient derived Abeta: compound 0.2 µM, Abeta 1.5 pM; for effect on trafficking of compound alone: no Abeta; for activity in blocking effects of Abeta oligomers: control compounds; for Treatment duration for maximum response: Abeta preparation dosed alone;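 for all read-outs here: mixed neuron and glia cultures from E18 Sprague-Dawley rat embryos, grown 3 weeks in 384-well plates, labeled vesicles quantified by imaging or spectrophotometry as percent of vehicle-treated wells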
[3] = test system: synaptophysin-immunopositive puncta along MAP2-labeled neurites; experiment: Synapse counting assay; format: cell-based, rat; conditions: for Affects Synapse density in the absence of Aβ: Table S1
Method: Sprague-Dawley rats, 18 days pregnant, were euthanized by CO2 asphyxiation followed by cervical dislocation, and embryos were removed. Hippocampus and cortical tissue from the embryo brains were digested in 2.5% Trypsin (Life Technologies) to dissociate cells. Isolated cells were plated at a density of 4.6×10^4 cells per cm^2 in 384-well poly-D Lysine coated plates (Greiner) in Neurobasal Media (Life Technologies) supplemented with B27 (Life Technologies), Glutamax (Life Technologies) and antibiotics (penicillin, 50 units/ml and streptomycin 50 µg/ml, Life Technologies). Cultures were maintained at 37°C in 5% CO2 with weekly media change for 3 weeks prior to experimentation. These mixed cultures of hippocampal plus cortical neurons and glia were used for all of the in vitro experiments described.
Cultures were treated with compounds for 60 minutes prior to addition of 6 µM (maximum from trafficking dose-response curve) of synthetic Abeta 1–42 oligomers and incubated for 24 hrs. Cultures were fixed and immunofluorescently labeled and imaged as for the Abeta binding assay. The ThermoFisher/Cellomics Neuronal Profiling bioapplication was used to count synaptophysin-immunopositive puncta along MAP2-labeled neurites. The number of puncta per unit length of neurites was used to determine effects of treatments. To attain statistical power of 80% and a p value of less than 0.05 (determined using G*Power software), twenty replicate wells were treated per experiment plate and compared to control wells on the same plate and experiments were repeated four times.

[4] = target: T1, Abeta 1–42 oligomers (Homo sapiens, UniProt P05067); experiment: Oligomer-specific Abeta ELISA (direct action on oligomers); format: biochemical
T1 construct: purchased California Peptide Inc; American Peptide Company; or University of Pittsburgh Peptide Core facility 641-15; 62-0-80; host or cells: chemical synthesis
T1 sequence (P05067 672-713): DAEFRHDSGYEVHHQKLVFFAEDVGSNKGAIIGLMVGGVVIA
Method: Determination of oligomeric and monomeric concentrations of Abeta contained in a given Abeta preparation was done according to the method of LeVine. Briefly, total Abeta concentration is measured by two-site ELISA using different capture (6E10 monoclonal antibody, Covance SIG-39320) and detection (4G8- conjugated to biotin, Covance, SIG39240) antibodies and quantifyied with streptavidin-horseradish peroxidase (Millipore catalog number AP308P). Oligomerized Abeta is measured in the same samples by a single-site ELISA in which monoclonal antibodies to the same epitope are used for capture (4G8, Covance SIG-39330) and detection (4G8-biotin). The 4G8-biotin cannot bind to captured monomer because the epitope is blocked by the capture antibody, so only oligomers are detected with this configuration. The streptavidin-horseradish peroxidase therefore reports only oligomeric Abeta which has additional exposed 4G8 epitopes. Monomer concentration is calculated as the difference between total Abeta concentration and oligomer concentration.

[5] = target: T2, sigma-2/PGRMC1 receptor (Homo sapiens, UniProt Q5BJF2); experiment: Sigma-2 radioligand binding; conditions: radioligand competition binding; read-out: Ki, binding affinity at the sigma-2/PGRMC1 receptor
T2 construct: endogenous in cells; host or cells: human Jurkat cells (membranes)
T2 sequence (Q5BJF2 whole entry): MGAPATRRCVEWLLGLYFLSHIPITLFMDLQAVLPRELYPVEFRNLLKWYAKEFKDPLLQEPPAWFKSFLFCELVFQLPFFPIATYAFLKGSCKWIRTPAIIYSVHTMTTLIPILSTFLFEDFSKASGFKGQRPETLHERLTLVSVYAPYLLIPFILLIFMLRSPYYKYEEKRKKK
Method: Radioligand competition assays were performed in membranes from human Jurkat cells using 5 nM [^3H]1,3-di(2-tolyl) guanidine in the presence of 1 µM (+)-pentazocine with 10 µM haloperidol to define non-specific binding.

[6] = test system: mouse models of Alzheimer's disease; experiment: Behavioral tests (behavioral efficacy summary); format: in vivo, mice; parameters: key to Measured efficacy: statistically significant improvement (+); no significant improvement (-); conditions: for Behavioral efficacy: Table S1
Excerpt: (§1) All procedures were approved by the Institutional Animal Care and Use and Committee at Columbia University and Stanford University and were in compliance with the Office of Laboratory Animal Welfare and the Guide for the Care and Use of Laboratory Animals, Eighth Edition. Behavioral testing of wild-type, 3–4 month old, male, C57/BL6 mice, injected bilaterally into their hippocampus with Abeta oligomers and testing in the fear conditioning task was done according to published methods. Animals were anesthetized with […] Avertin prior to implantation of cannulas into the hippocampus. Testing of transgenic hAPP Swedish/London mice in the Morris water maze or fear conditioning tasks was done according to published methods, [38]. To measure brain concentration of drugs, brains were homogenized in 1 ml PBS per gram of brain tissue using a handheld homogenizer. Brain homogenate was then extracted with three volumes of ice cold methanol on ice for 15 minutes and centrifuged for 15 min. The supernates were analyzed by LC/MS/MS. Samples were compared to a calibration curve prepared in a similar manner by spiking blank control homogenate with standards prepared in DMSO and then extracted as above. At the end of all behavioral testing, animals were euthanized with CO2 followed by cervical dislocation.

[7] = Brain concentration of compounds (LC/MS/MS); format: in vivo, mice; conditions: mouse, 24 h after last dose, read-out: Compound Concentration in brain
Excerpt: as §1

[8] = test system: C57/BL6 mice injected with Abeta oligomers; experiment: Contextual fear conditioning after intrahippocampal Abeta oligomer injection; format: in vivo; conditions: 2 µM intrahippocampal; for prevention of Abeta oligomer-induced fear memory deficits: one hour prior to oligomer injection; for effect on fear memory when administered alone: without Abeta
Excerpt: as §1

[9] = test system: hAPP Swe/Ldn transgenic mice; experiment: Morris water maze probe trial; format: in vivo; conditions: 42 days
Excerpt: as §1

[10] = test system: hAPP Swe/Ldn transgenic mice; experiment: Contextual fear conditioning in transgenic mice; format: in vivo; conditions: 5.5 months, 9 month old males
Excerpt: as §1

[11] = Rattus norvegicus, compound added 1 hr prior to Abeta oligomers, log value, read-out: Prevention Log EC50 ± SE (converted)
[12] = Rattus norvegicus, compound added 1 hr prior to synthetic Abeta oligomers, read-out: Prevention EC50
[13] = 1 mg/kg/day s.c. osmotic minipump
[14] = 10 mg/kg/day s.c. osmotic minipump
[15] = hAPP Swedish/London transgenic, subcutaneous, 1 mg/kg/day s.c. osmotic minipump
[16] = hAPP Swedish/London transgenic, subcutaneous, 10 mg/kg/day s.c. osmotic minipump
[17] = Rattus norvegicus, 1 h, compound added 1 hr after Abeta oligomers, log value, read-out: Treatment Log EC50 ± SE (converted)
[18] = Rattus norvegicus, 1 h, compound added 1 hr after synthetic Abeta oligomers, read-out: Treatment EC50
[19] = hAPP Swe/Ldn transgenic, 10 mg/kg/day once daily oral gavage
[20] = hAPP Swe/Ldn transgenic, 30 mg/kg/day once daily oral gavage
[21] = preparation dosed alone, read-out: EC50 of Abeta preparation

## CC(C)=CC(C[C@H](C)c1ccc(C)cc1)NCC(C)C (stereo partly drawn) [CT0093]
[1]
  displacement of Abeta oligomers: 49±5%
  prevention of binding of Abeta oligomers to neuronal cultures: 93%±2%
[1]; compound before oligomers, read-out: IC50, Abeta binding, prevention
  IC50: 2.2 µM
[1]; pretreatment, read-out: EC50, prevention of Abeta binding
  EC50: 2.2 ± 2.4 µM
[2]; [11]
  EC50: 4.9 µM
[2]; [12]
  EC50: 4.9 µM
[2]; Rattus norvegicus, compound added 1 hr after Abeta oligomers, log value, read-out: Treatment Log EC50 ± SE (converted)
  EC50: 2 µM
[2]; Rattus norvegicus, compound added 1 hr after synthetic Abeta oligomers, read-out: Treatment EC50
  EC50: 2 µM
[2]
  Schild slope: 1
  reversal of trafficking deficit caused by human patient derived Abeta: reverse the trafficking deficit
  effect on trafficking of compound alone: without affecting trafficking on their own
[3]
  Affects Synapse density in the absence of Aβ: No
[4]
  dissociation of preformed oligomers: not by CT0109 or CT0093
[5]
  Ki: 0.054 µM
[6]; [13]
  Measured efficacy: -
[6]; [14]
  Measured efficacy: +
[6]
  Behavioral efficacy: Yes
[7]; [15]
  concentration at 24 h: 64 nM
[7]; [16]
  concentration at 24 h: 555 nM
[8]
  prevention of Abeta oligomer-induced fear memory deficits: completely prevented fear memory deficits
  effect on fear memory when administered alone: no effect on memory

## C[C@H](CCc1ccc(Cl)cc1)NCc1ccc(C(F)(F)F)cc1 [CT01346]
[1]
  displacement of Abeta oligomers: 93±13%
  prevention of binding of Abeta oligomers to neuronal cultures: 93%±4%
[9]; 30 mg/kg/day oral, eleven month-old females
  spatial memory retrieval performance, transgenic animals: significantly improves spatial memory retrieval performance
[9]; 30 mg/kg/day p.o.
  behavior of treated nontransgenic animals: behaved similarly to vehicle-treated wild-type animals
[2]; [17]
  EC50: 8.71 µM
[2]; [18]
  EC50: 8.7 µM
[2]; [11]
  EC50: 9.33 µM
[2]; [12]
  EC50: 9.4 µM
[2]
  Schild slope: 1
[3]
  Affects Synapse density in the absence of Aβ: No
[10]; 30 mg/kg/day p.o.
  contextual fear memory performance: significantly improved fear memory performance
[5]
  Ki: 0.05 µM
[6]; 10 mg/kg/day oral gavage
  Measured efficacy: -
[6]; 30 mg/kg/day oral gavage
  Measured efficacy: +
[6]
  Behavioral efficacy: Yes
[7]; [19]
  concentration at 24 h: 54 nM
[7]; [20]
  concentration at 24 h: 330 nM

## O[C@H]1[C@H](O)[C@@H](O)[C@H](O)[C@@H](O)[C@@H]1O [scyllo-inositol, reference compound]
[2]
  activity in blocking effects of Abeta oligomers: only memantine was active

## C[C@]12N[C@H](Cc3ccccc31)c1ccccc12 [MK-801, reference compound]
[2]
  activity in blocking effects of Abeta oligomers: only memantine was active

## CC12CC3CC(C)(C1)CC(N)(C3)C2 [memantine, reference compound]
[2]; control compound vs Abeta oligomers
  doses weakly blocking oligomer effects: above 100 µM

## Oc1cccc2cccnc12 [8-OH quinoline, reference compound]
[4]
  dissociation of preformed oligomers: dissociated

## COc1ccc(CCC(C)NC2CCCc3ccccc32)cc1 (stereo not drawn) [CT01206]
[2]; [11]
  EC50: 4.37 µM
[2]; [12]
  EC50: 4.3 µM
[3]
  Affects Synapse density in the absence of Aβ: Yes
[6]
  Behavioral efficacy: No
[8]
  prevention of Abeta oligomer-induced fear memory deficits: not effective
  effect on fear memory when administered alone: caused fear memory deficits in the absence of Abeta

## COc1cc(CCC(C)NCc2ccc(C(F)(F)F)cc2)ccc1O (stereo not drawn) [CT0109]
[1]
  displacement of Abeta oligomers: 44%±3%
  prevention of binding of Abeta oligomers to neuronal cultures: 99%±7%
[2]; 15 µM added 1 hr prior to synthetic Abeta oligomers 3 µM
  restoration of trafficking: restores trafficking to vehicle-treated levels
[2]; [17]
  EC50: 4.07 µM
[2]; [18]
  EC50: 4.1 µM
[2]; Rattus norvegicus, Table S1, read-out: Block Aβ-induced membrane trafficking deficits EC50
  EC50: 2.2 µM
[2]; [11]
  EC50: 3.24 µM
[2]; [12]
  EC50: 3.2 µM
[2]
  Schild slope: 1
  reversal of trafficking deficit caused by human patient derived Abeta: reverse the trafficking deficit
  effect on trafficking of compound alone: without affecting trafficking on their own; also recorded: without affecting vesicles on its own
[3]
  Affects Synapse density in the absence of Aβ: No
[4]
  dissociation of preformed oligomers: not by CT0109 or CT0093
[5]
  Ki: 0.009 µM
[6]; [13]
  Measured efficacy: +
[6]; [14]
  Measured efficacy: +
[6]
  Behavioral efficacy: Yes
[7]; [15]
  concentration at 24 h: 41 nM
[7]; [16]
  concentration at 24 h: 266 nM
[8]
  prevention of Abeta oligomer-induced fear memory deficits: completely prevented fear memory deficits
  effect on fear memory when administered alone: no effect on memory

## C[C@H](CCc1ccc(Cl)c(Cl)c1)NCc1ccc(C(F)(F)F)cc1 [CT01344]
[1]
  displacement of Abeta oligomers: 66±14%
  prevention of binding of Abeta oligomers to neuronal cultures: 94%±4%
[1]; displacement of pre-bound oligomers, read-out: IC50, Abeta binding, treatment
  IC50: 3.9 µM
[1]; read-out: EC50, displacement of pre-bound Abeta binding
  EC50: 3.9 ± 1.8 µM
[2]; [17]
  EC50: 6.46 µM
[2]; [18]
  EC50: 7.3 µM
[2]; [11]
  EC50: 8.71 µM
[2]; [12]
  EC50: 8.7 µM
[2]
  Schild slope: 1
[3]; 15 µM
  restoration of synapse loss induced by Abeta: 100%
[3]
  Affects Synapse density in the absence of Aβ: No
[10]; 10 mg/kg/day p.o.
  contextual fear memory performance: significantly improved fear memory performance
[10]; 30 mg/kg/day p.o.
  contextual fear memory performance: significantly improved fear memory performance
[5]
  Ki: 0.048 µM
[6]; 10 mg/kg/day oral gavage
  Measured efficacy: +
[6]; 30 mg/kg/day oral gavage
  Measured efficacy: +
[6]
  Behavioral efficacy: Yes
[7]; [19]
  concentration at 24 h: 394 nM
[7]; [20]
  concentration at 24 h: 793 nM

## C[N+](C)(C)CCCCCC[N+](C)(C)C [hexamethonium bromide, reference compound]
[2]
  activity in blocking effects of Abeta oligomers: only memantine was active

## semi-synthetic oligomers: Abeta 1–42 monomers incubated in size excluded rat brain homogenate, immunoprecipitated with 6E10 [reference compound]
[2]
  Treatment duration for maximum response: 1 h
[2]; [21]
  EC50: 0.0059 µM

## Synthetic oligomers (low concentration): Abeta 1–42 oligomers formed at 500 nM, high molecular weight fraction from Sephadex G-75 [reference compound]
[2]
  Treatment duration for maximum response: 1 h
[2]; [21]
  EC50: 0.0027 µM
